From PubChem BioAssay (NCI)
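These data come from cells grown in 96-well plates and exposed to compound for 48 hours at five concentrations. Here, GI50 denotes the concentration required for 50% inhibition of growth. TGI marks complete inhibition of growth.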

Columns and labels:
Test in all cases: NCI tumour cell line growth inhibition, 48 h; in the data active = GI50 below about 0.43 µM; inactive = the rest
[1] = tested on: HCT-116 colon
[2] = tested on: SNB-19 CNS
[3] = tested on: SW-620 colon
[4] = tested on: OVCAR-8 ovarian
[5] = tested on: MDA-MB-435
[6] = tested on: MALME-3M melanoma
[7] = tested on: SF-268 CNS
[8] = tested on: NCI-H23 lung
[9] = tested on: HL-60(TB) leukemia
[10] = tested on: OVCAR-4 ovarian
[11] = tested on: LOX IMVI melanoma
[12] = tested on: HCC-2998 colon
[13] = tested on: RPMI-8226 leukemia
[14] = tested on: OVCAR-5 ovarian
[15] = tested on: SNB-75 CNS
[16] = tested on: UACC-257 melanoma
[17] = tested on: SK-MEL-2 melanoma
[18] = tested on: SF-295 CNS
[19] = tested on: HT29 colon
[20] = tested on: HS 578T breast
[21] = tested on: A498 renal
[22] = tested on: HCT-15 colon
[23] = tested on: DU-145 prostate
[24] = tested on: NCI-H226 lung
[25] = tested on: IGROV1 ovarian
[26] = tested on: U251 CNS
[27] = tested on: OVCAR-3 ovarian
[28] = tested on: HOP-62 NSCLC
[29] = tested on: MCF7 breast
[30] = tested on: NCI/ADR-RES ovarian
[31] = tested on: CCRF-CEM leukemia
[32] = tested on: A549 NSCLC
[33] = tested on: UO-31 renal
[34] = tested on: M14 melanoma
[35] = tested on: 786-0 renal
[36] = tested on: MDA-MB-231 breast
[37] = tested on: MOLT-4 leukemia
[38] = tested on: NCI-H460 lung
[39] = tested on: PC-3 prostate
[40] = tested on: HOP-92 NSCLC
[41] = tested on: SN12C renal
[42] = tested on: SK-MEL-28 melanoma
[43] = tested on: KM12 colon
[44] = tested on: CAKI-1 renal
[45] = tested on: COLO 205 colon
[46] = tested on: SK-MEL-5 melanoma
[47] = tested on: K-562 leukemia
[48] = tested on: ACHN renal
[49] = tested on: BT-549 breast
[50] = tested on: SK-OV-3 ovarian
[51] = tested on: RXF 393 renal
[52] = tested on: T-47D breast
[53] = tested on: NCI-H522 lung
[54] = tested on: TK-10 renal
[55] = tested on: SR leukemia
[56] = tested on: SF-539 CNS
[57] = tested on: UACC-62 melanoma

O=c1c2sc3ccccc3c2nnn1-c1ccc(F)c(Cl)c1
20.9 µM: TGI [1]
38 µM: TGI [25]
39.4 µM: TGI [47]
inactive: GI50 [1] 3.6 µM | GI50 [2] 4.16 µM | GI50 [3] > 100 µM | GI50 [4] 5.16 µM | GI50 [5] > 100 µM | GI50 [6] 8.17 µM | GI50 [7] 15 µM | GI50 [8] 15.7 µM | GI50 [9] 56.6 µM | GI50 [10] 3.39 µM | GI50 [11] 3.9 µM | GI50 [12] 24.8 µM | GI50 [13] 13.4 µM | GI50 [14] 20.8 µM | GI50 [15] 2.01 µM | GI50 [16] 29.4 µM | GI50 [17] 14.8 µM | GI50 [18] 2.56 µM | GI50 [19] > 100 µM | GI50 [20] 2.68 µM | GI50 [21] 5.82 µM | GI50 [22] 20.3 µM | GI50 [23] 15.6 µM | GI50 [24] 8.87 µM | GI50 [25] 3.66 µM | GI50 [26] 4.76 µM | GI50 [27] 21.2 µM | GI50 [28] 2.17 µM | GI50 [29] 20.4 µM | GI50 [30] 17.1 µM | GI50 [31] 4.03 µM | GI50 [32] 3.75 µM | GI50 [33] 2.13 µM | GI50 [34] 30 µM | GI50 [35] 3.62 µM | GI50 [36] 3.99 µM | GI50 [37] 14.9 µM | GI50 [38] 4.2 µM | GI50 [39] 7.76 µM | GI50 [40] 1.25 µM | GI50 [41] 15.1 µM | GI50 [42] > 100 µM | GI50 [43] 17.4 µM | GI50 [44] 3.65 µM | GI50 [45] 3.93 µM | GI50 [46] 39.3 µM | GI50 [47] 14.8 µM | GI50 [48] 3.88 µM | GI50 [49] 31.7 µM | GI50 [50] 3.17 µM | GI50 [51] 5.21 µM | GI50 [52] 8.12 µM | GI50 [53] 20.2 µM | GI50 [54] 4.63 µM | GI50 [55] 7.99 µM | GI50 [56] 11.9 µM | GI50 [57] 11.7 µM
26.1 µM: TGI [36]
54.6 µM: TGI [6]
> 100 µM: TGI [3] | TGI [4] | TGI [5] | TGI [9] | TGI [10] | TGI [11] | TGI [12] | TGI [14] | TGI [16] | TGI [19] | TGI [22] | TGI [23] | TGI [24] | TGI [27] | TGI [29] | TGI [30] | TGI [32] | TGI [33] | TGI [34] | TGI [38] | TGI [39] | TGI [41] | TGI [42] | TGI [43] | TGI [44] | TGI [45] | TGI [46] | TGI [52] | TGI [53]
38.8 µM: TGI [57]
24.9 µM: TGI [26]
5.66 µM: TGI [28]
11.5 µM: TGI [35]
16.9 µM: TGI [31]
62.8 µM: TGI [8]
24.2 µM: TGI [21]
22.4 µM: TGI [51]
95 µM: TGI [49]
8.59 µM: TGI [18]
27.7 µM: TGI [56]
22.7 µM: TGI [55]
35 µM: TGI [17]
10.4 µM: TGI [20]
41.4 µM: TGI [13]
13.8 µM: TGI [54]
27.2 µM: TGI [48]
32.5 µM: TGI [37]
8.89 µM: TGI [15]
34.4 µM: TGI [2]
55 µM: TGI [7]
4.89 µM: TGI [40]
9.92 µM: TGI [50]
